Experimental data: US6410533B1, “Antibacterial compounds” (Genzyme Corporation, priority 2000, dated 2002)
≈ marks a conversion by molar mass, not a printed value. Like-named read-outs stand apart in the source and are kept apart here.

What was measured:
[1] = tested on: methicillin-resistant Staphylococcus aureus (ATCC 33591); assay: In vivo mouse intraperitoneal infection, mortality and % survivors over 7 days; details: single dose 1 h post inoculation, MRSA ATCC 33591 i.p., ICR mice
Experimental: Ten male ICR mice weighing 20 grams were inoculated intraperitoneally with an LD90-100 dose (2-3×10^7 CFU/mouse) of methicillin-resistant Staphylococcus aureus (ATCC 33591) in brain-heart infusion broth containing 5% mucin. Compounds were suspended in a vehicle containing 1% cremophore EL (Sigma) in normal saline and were administered subcutaneously in a volume of 0.4 ml per mouse either 1 hour following bacterial inoculation or 1 and 5 hours post inoculation. Animals receiving two doses of drug were injected subcutaneously in the hindquarter one hour post-innoculation and in the neck area, 5 hours post-innoculation. Deaths occurring during the subsequent 7 days are recorded. Mortality and % survivor endpoints are calculated.

[2] = tested on: Staphylococcus aureus bacteria (ATCC 9604 SV); assay: IC50 determination, growth inhibition by turbidity at 550 nm; assay type: cell-based; details: Staphylococcus aureus ATCC 9604 SV, turbidity at 550 nm after 3-5 h at 37° C.
Experimental: (§1) Minimal inhibitory concentrations (MICs) for Staphylococcus aureus bacteria (ATCC 9604 SV) were determined by broth microdilution methodology following National Committee for Clinical Laboratory Standards. In the MIC determinations, the compounds were incorporated into Mueller-Hinton broth (Becton Dickinson Microbiology systems, Cockeyville, Md.) at a series of concentrations. After the test organism was grown overnight in TB broth, the broths were adjusted to the turbidity equivalent to 0.05 McFarland standard. The suspensions were diluted twenty-fold into the broth containing the compounds. […] In the IC50 determination, the method was modified to allow the rapid growth of the organisms. The inoculum suspensions were adjusted to 0.1 McFarland standard and then diluted two-fold into the wells containing TB broth and the compounds. After three to five hours incubation at 37° C., the turbidity was measured at 550 nm and inhibitory activity was defined as the concentration of antimicrobial agent that inhibits 50% growth of the organism in the microdilution wells.

[3] = tested on: Staphylococcus aureus bacteria (ATCC 9604 SV); assay: Minimal inhibitory concentration (MIC), broth microdilution; assay type: cell-based; details: 24 h at 37° C.
Experimental: as §1

[4] = Staphylococcus aureus ATCC 9604 SV

| Structure (SMILES) | IC50 [2] [nM] | MIC [3, 4] [µg/mL] | further results |
| --- | --- | --- | --- |
| CC(C)(C)c1cc(NC(=O)Nc2cc(Cl)cc(Cl)c2)n(-c2ccc(C(F)(F)F)cc2)n1 [Compound 73] | 83 |  | In Vivo, single dose (% of mice rescued) ([1]; 2 mg/kg s.c.): 0% @ 2 mg/kg; In Vivo, single dose (% of mice rescued) ([1]; 20 mg/kg s.c.): 0% @ 20 mg/kg |
| O=C(Nc1cc(C(F)(F)F)cc(C(F)(F)F)c1)Nc1cc(Cc2ccccc2)nn1-c1ccc(C(F)(F)F)cc1 [Compound 74] | 127 | 3.43 (≈ 5.99 µM) |  |
| O=C(Nc1ccc(Cl)c(C(F)(F)F)c1)Nc1cc(-c2ccccc2)nn1-c1ccc(C(F)(F)F)cc1 [Compound 75] | 96 | <0.787 |  |
| O=C(Nc1cc(C(F)(F)F)cc(C(F)(F)F)c1)Nc1cc(-c2ccc(CN3CCOCC3)cc2)nn1-c1ccc(C(F)(F)F)cc1 [Compound 88] | 1480 | >32.9 |  |
| CN(C)Cc1cc(NC(=O)Nc2cc(C(F)(F)F)cc(C(F)(F)F)c2)n(-c2ccc(C(F)(F)F)cc2)n1 [Compound 90] | 4400 | 13.5 (≈ 25 µM) |  |
| O=C(Nc1cc(C(F)(F)F)cc(C(F)(F)F)c1)Nc1c(Br)cnn1-c1ccc(Br)cc1 [Compound 97, 1-(3,5-Bis-trifluoromethyl-phenyl)-3-[4-bromo-2-(4-bromo-phenyl)-2H-pyrazol-3-yl]-urea] |  |  | MIC ([3]; ATCC9604, Staphylococcus aureus ATCC 9604 SV, read-out: MIC): > 29.3 µg/mL; IC50 ([2]; ATCC9604): 107 nM |
| O=C(Nc1cc(Cl)cc(Cl)c1)Nc1c2c(nn1-c1ccc(Br)cc1)CCCC2 [Compound 105] | 3210 | >24.0 |  |
| O=C(Nc1cc(C(F)(F)F)cc(C(F)(F)F)c1)Nc1c2c(nn1-c1ccc(Br)cc1)CCCC2 [Compound 106] | 459 | >27.4 |  |
| Cc1cc(-c2cc(NC(=O)Nc3cc(C(F)(F)F)cc(C(F)(F)F)c3)n(-c3ccc(Br)cc3)n2)no1 [Compound 115] | 402 | 1.72 (≈ 3 µM) |  |
| O=C(Nc1cc(Cl)cc(Cl)c1)Nc1cc(-c2ccncc2)nn1-c1ccc(Br)cc1 [Compound 118] | 239 | 0.755 (≈ 1.5 µM) |  |
| O=C(Nc1cc(C(F)(F)F)cc(C(F)(F)F)c1)Nc1cc(-c2ccncc2)nn1-c1ccc(Br)cc1 [Compound 119] | 163 | 0.855 (≈ 1.5 µM) |  |
| Cc1cnc(NC(=O)Nc2cc(C(F)(F)F)cc(C(F)(F)F)c2)s1 [Compound 122] | 2720 | >18.5 |  |
| Cc1nc(NC(=O)Nc2cc(C(F)(F)F)cc(C(F)(F)F)c2)sc1C [Compound 123] | 520 | 1.15 (≈ 3 µM) |  |
| C=CCCc1csc(NC(=O)Nc2cc(C(F)(F)F)cc(C(F)(F)F)c2)n1 [Compound 126] | 612 | 10.2 (≈ 24.9 µM) |  |
| O=C(O)Cc1csc(NC(=O)Nc2cc(C(F)(F)F)cc(C(F)(F)F)c2)n1 [Compound 127] | 29300 | >20.7 |  |
| CCOC(=O)c1nc(NC(=O)Nc2cc(C(F)(F)F)cc(C(F)(F)F)c2)sc1C [Compound 128] | 510 |  | In Vivo, single dose (% of mice rescued) ([1]; 2 mg/kg s.c.): 0% @ 2 mg/kg; In Vivo, single dose (% of mice rescued) ([1]; 20 mg/kg s.c.): 0% @ 20 mg/kg |

| Structure (SMILES) | IC50 [2] [nM] | MIC [3, 4] [µg/mL] | further results |
| --- | --- | --- | --- |
| CCOC(=O)C(=O)c1csc(NC(=O)Nc2cc(C(F)(F)F)cc(C(F)(F)F)c2)n1 [Compound 129] | 944 | 11.4 (≈ 25 µM) |  |
| O=C(Nc1cc(C(F)(F)F)cc(C(F)(F)F)c1)Nc1nc(Cc2ccccc2)cs1 [Compound 130] | 275 | 1.34 (≈ 3.01 µM) |  |
| O=C(Nc1cc(C(F)(F)F)cc(C(F)(F)F)c1)Nc1nc(CCc2ccccc2)cs1 [Compound 131] | 367 | 23.4 (≈ 50.9 µM) |  |
| O=C(Nc1cc(C(F)(F)F)cc(C(F)(F)F)c1)Nc1nc(-c2cccc(F)c2)cs1 [Compound 135] | 107 | 1.35 (≈ 3 µM) |  |
| Cc1sc(NC(=O)Nc2cc(C(F)(F)F)cc(C(F)(F)F)c2)nc1-c1ccc(Br)cc1 [Compound 137] | 838 |  |  |
| O=C(Nc1cc(C(F)(F)F)cc(C(F)(F)F)c1)Nc1nc(-c2ccc(Cl)cc2)cs1 [Compound 138, 1-(3,5-Bis-trifluoromethyl-phenyl)-3-[4-(4-chloro-phenyl)-thiazol-2-yl]-urea] |  |  | IC50 ([2]; ATCC9604): 100 nM |
| O=C(Nc1cc(C(F)(F)F)cc(C(F)(F)F)c1)Nc1nc(-c2ccc(F)cc2)cs1 [Compound 139] | 100 |  | In Vivo, single dose (% of mice rescued) ([1]; 2 mg/kg s.c.): 0% @ 2 mg/kg; In Vivo, single dose (% of mice rescued) ([1]; 20 mg/kg s.c.): 0% @ 20 mg/kg |
| Cc1ccc(-c2csc(NC(=O)Nc3cc(C(F)(F)F)cc(C(F)(F)F)c3)n2)cc1 [Compound 140] | 653 |  |  |
| COc1ccc(-c2csc(NC(=O)Nc3cc(C(F)(F)F)cc(C(F)(F)F)c3)n2)cc1 [Compound 141] | 1360 |  |  |
| O=C(Nc1cc(C(F)(F)F)cc(C(F)(F)F)c1)Nc1nc(-c2ccc(OC(F)F)cc2)cs1 [Compound 142] | 235 | 6.22 (≈ 12.5 µM) |  |
| O=C(Nc1cc(C(F)(F)F)cc(C(F)(F)F)c1)Nc1nc(-c2ccc(C(F)(F)F)cc2)cs1 [Compound 143] | 129 | 1.40 (≈ 2.8 µM) |  |
| N#Cc1ccc(-c2csc(NC(=O)Nc3cc(C(F)(F)F)cc(C(F)(F)F)c3)n2)cc1 [Compound 144] | 337 |  |  |
| O=C(Nc1cc(C(F)(F)F)cc(C(F)(F)F)c1)Nc1nc(-c2ccc(CO)cc2)cs1 [Compound 145] | 3740 | >23.1 |  |
| O=C(Nc1cc(C(F)(F)F)cc(C(F)(F)F)c1)Nc1nc(-c2ccc(CCO)cc2)cs1 [Compound 146] | 1610 | 2.71 (≈ 5.7 µM) |  |
| O=C(Nc1cc(C(F)(F)F)cc(C(F)(F)F)c1)Nc1nc(-c2ccc(-c3ccccc3)cc2)cs1 [Compound 147] | 799 |  |  |
| O=C(Nc1cc(C(F)(F)F)cc(C(F)(F)F)c1)Nc1nc(-c2ccc(Cl)cc2Cl)cs1 [Compound 148] | 400 |  |  |

Continued, in another order:

| IC50 [2] [nM] | MIC [3, 4] [µg/mL] | Structure (SMILES) | further results |
| --- | --- | --- | --- |
| 879 |  | O=C(Nc1cc(C(F)(F)F)cc(C(F)(F)F)c1)Nc1nc(-c2ccc(F)cc2F)cs1 [Compound 149] |  |
| 410 |  | O=C(Nc1cc(C(F)(F)F)cc(C(F)(F)F)c1)Nc1nc(-c2ccc(Cl)c(Cl)c2)cs1 [Compound 150] |  |
| 1450 |  | O=C(Nc1cc(C(F)(F)F)cc(C(F)(F)F)c1)Nc1nc(-c2ccc3ccccc3c2)cs1 [Compound 153] |  |
| 20100 | >22.6 | O=C(Nc1cc(C(F)(F)F)cc(C(F)(F)F)c1)Nc1nc(-c2cc(CO)no2)cs1 [Compound 154] |  |
| 259 | 1.31 (≈ 3 µM) | O=C(Nc1cc(C(F)(F)F)cc(C(F)(F)F)c1)Nc1nc(-c2cccs2)cs1 [Compound 155] |  |
| 295 | 1.22 (≈ 3.01 µM) | O=C(Nc1cc(C(F)(F)F)cc(C(F)(F)F)c1)Nc1nc2ccccc2s1 [Compound 156] |  |
| 332 |  | Cc1c(-c2csc(NC(=O)Nc3cc(C(F)(F)F)cc(C(F)(F)F)c3)n2)sc2ccc(Cl)cc12 [Compound 157] |  |
| 543 |  | O=C(Nc1cccc(Br)c1)Nc1nc(-c2ccc(Br)cc2)cs1 [Compound 159] |  |
| 461 | 1.19 (≈ 2.99 µM) | O=C(Nc1ccc(OC(F)F)cc1)Nc1nc(-c2ccc(F)c(F)c2)cs1 [Compound 160] |  |
| 134 | <0.647 | O=C(Nc1ccc(SC(F)(F)F)cc1)Nc1nc(-c2ccc(F)c(F)c2)cs1 [Compound 161] |  |
| 4710 |  | O=C(Nc1nc(-c2ccc(Cl)cc2)cs1)Nc1ccc(Br)cc1C(F)(F)F [Compound 162] |  |
| 180 |  | O=C(Nc1cc(Cl)cc(Cl)c1)Nc1nc(-c2ccc(Cl)cc2)cs1 [Compound 163] |  |
| 2650 |  | O=C(Nc1cc(Cl)cc(Cl)c1)Nc1nc(-c2ccc(F)c(F)c2)cs1 [Compound 164] |  |
| 364 | 2.40 (≈ 6.01 µM) | O=C(Nc1ccc(F)c(C(F)(F)F)c1)Nc1nc(-c2cccc(F)c2)cs1 [Compound 165] |  |
| 205 |  | O=C(Nc1ccc(F)c(C(F)(F)F)c1)Nc1nc(-c2ccc(Br)cc2)cs1 [Compound 166] |  |
| 175 |  | O=C(Nc1ccc(F)c(C(F)(F)F)c1)Nc1nc(-c2ccc(Cl)cc2)cs1 [Compound 167] |  |
| 661 | >20.7 | Cc1cc(-c2csc(NC(=O)Nc3ccc(F)c(C(F)(F)F)c3)n2)ccc1F [Compound 169] |  |
| 910 | >21.7 | O=C(Nc1nc(-c2ccc(Cl)cc2)cs1)Nc1cc(Cl)c(Cl)cc1Cl [Compound 170] |  |
| 927 |  | O=C(Nc1nc(-c2ccc(Cl)cc2)cs1)Nc1c(Cl)cc(Cl)cc1Cl [Compound 171] |  |
| 2850 | 5.18 (≈ 12.5 µM) | O=C(NCc1ccc(Cl)c(Cl)c1)Nc1nc(-c2ccc(F)c(F)c2)cs1 [Compound 182] |  |
| 6380 | 10.8 (≈ 25 µM) | CC(NC(=O)Nc1nc(-c2ccc(Br)cc2)cs1)C(O)c1ccccc1 (stereo not shown) [Compound 183] |  |
